According to patent publication US20210401805A1, “Immune CB1 Activation for Obesity Therapy” (University of South Carolina, priority 2020, published 2021):
Entries after “also recorded” stand apart in the source; their conditions may differ.

How the values were obtained:
DIO mice [1] = details: 4 weeks' treatment of DIO mice; cited from earlier work
[2] = system: epididymal CD11b+F4/80+ ATMs and CD11c+ M1 ATMs; test: Flow cytometry of epididymal adipose tissue macrophages in DIO intervention study; assay type: in vivo, mice
12-week HFD-fed DIO mice [3] = test: DIO intervention study: body weight, fat mass, fat pad weight, food intake; assay type: in vivo; details: 21 consecutive days
[4] = system: 12-week HFD-fed CB2−/− DIO mice; test: DIO intervention study in CB2-/- mice: body weight, adiposity, appetite; assay type: in vivo; details: AM251 10 mg/kg oral gavage, 21 consecutive days
6-week 36% HFD-fed mice = details: cited from earlier work
[5] = system: 20 week 21% HFD-fed DIO mice; details: 15 days of CB2 agonism; cited from earlier work
12-week HFD-fed DIO mice [6] = test: Oral glucose tolerance test in DIO intervention study; assay type: in vivo; details: 21 consecutive days
[7] = system: diet-induced obese (DIO) mice; details: treatment of DIO mice with CB1 antagonist; cited from earlier work
DIO mice [8] = details: chronic administration in DIO mice; cited from earlier work
[9] = AM251 10 mg/kg oral gavage, WT DIO mice
[10] = 6-week 36% HFD-fed mice, treatment for 15 days
[11] = JWH-133 5 mg/kg oral gavage, 21 consecutive days, 5 mg/kg
[12] = Deveaux et al., 15 day treatment of 6-week HFD-fed DIO
[13] = SR144528 10 mg/kg oral gavage, versus vehicle-treated mice

For `Cc1c(C(=O)NN2CCCCC2)nn(-c2ccc(Cl)cc2Cl)c1-c1ccc(I)cc1` [AM251], the body weight (DIO mice [1]) is given as “rapid and sustained weight loss”, the “epididymal ATM numbers” value ([2]; AM251 10 mg/kg oral gavage, after 3 weeks of treatment, 10 mg/kg) is given as “remained constant; also recorded: persistent abundance” and the fat pad mass (12-week HFD-fed DIO mice [3]; AM251 10 mg/kg oral gavage) is given as “reduced”. The adiposity (12-week HFD-fed DIO mice [3]; [9]) was “reduced”, the appetite (12-week HFD-fed DIO mice [3]; [9]) was “suppressed” and the body weight (12-week HFD-fed DIO mice [3]; [9]) was “weight loss”. For the same compound, the adiposity [4] was “reduced”, the appetite [4] was “suppressed” and the body weight [4] was “weight loss”.

In the case of `COc1ccc(C(=O)c2c(C)n(CCN3CCOCC3)c3cc(I)ccc23)cc1` [AM630], the “adipose tissue inflammatory markers” value (6-week 36% HFD-fed mice; [10]) is listed as “reduced” and the ATMs (6-week 36% HFD-fed mice; 6-week 36% HFD-fed mice) is listed as “reduced”.

For `CCCn1c(C)c(C(=O)c2cccc3ccccc23)c2ccccc21` [JWH-015], the adiposity [5] is listed as “reduced”, the appetite response [5] is listed as “anorectic response” and the body weight loss [5] is listed as “approximately 10%”. The glucose tolerance [5] was “improved” and the lipolysis [5] was “increased”.

In the case of `CCCC(C)(C)c1ccc2c(c1)OC(C)(C)[C@@H]1CC=C(C)C[C@@H]21` [JWH-133], the “numbers of M1 ATMs per gram of fat” value ([2]; JWH-133 5 mg/kg oral gavage, 21 consecutive days) is reported as “increased”, the “numbers of ATMs per gram of fat” value [2, 11] is reported as “increased and more” and the “total ATMs” value [2, 11] is reported as “promoted persistence; also recorded: stable abundance”. The body weight (12-week HFD-fed DIO mice [3]; JWH-133 5 mg/kg oral gavage) was “did not significantly alter”, the fat mass (12-week HFD-fed DIO mice [3]; JWH-133 5 mg/kg oral gavage) was “did not significantly alter” and the food intake (12-week HFD-fed DIO mice [3]; JWH-133 5 mg/kg oral gavage) was “did not significantly alter”. For the same compound, the fat pad mass (12-week HFD-fed DIO mice [3]; JWH-133 5 mg/kg oral gavage, 5 mg/kg) was “fat pad loss; also recorded: fat pad shrinkage”, the “adipose tissue inflammatory markers” value (6-week 36% HFD-fed mice; [10]) was “increased” and the body weight (6-week 36% HFD-fed mice; [10]) was “no change”. The obesity (6-week 36% HFD-fed mice; [12]) was “potentiated”, the “white adipose tissue expression of Emr1 (macrophage marker F4/80)” value (6-week 36% HFD-fed mice; [12]) was “increased” and the glucose tolerance (12-week HFD-fed DIO mice [6]; JWH-133 5 mg/kg oral gavage) was “did not significantly alter”.

In the case of `Cc1c(C(=O)NN2CCCCC2)nn(-c2ccc(Cl)cc2Cl)c1-c1ccc(Cl)cc1` [SR141716A], the adipose tissue inflammation (DIO mice [1]) is listed as “decreased”, the body weight (DIO mice [1]) is listed as “rapid and sustained weight loss” and the metabolic impairments [7] is listed as “amelioration”. For the same compound, the obesity [7] was “amelioration”.

In the case of `CCCCCc1cc(O)c2c(c1)OC(C)(C)[C@@H]1CCC(C)=C[C@@H]21` [THC, delta-9-tetrahydrocannabinol], the HFD-induced adiposity (DIO mice [8]) is given as “reduces”, the HFD-induced polyphagia (DIO mice [8]) is given as “reduces” and the HFD-induced weight gain (DIO mice [8]) is given as “reduces”.

For SR144528, the adipose tissue inflammation ([2]; SR144528 10 mg/kg oral gavage, 21 consecutive days, versus vehicle-treated mice) was “no changes”, the body weight (12-week HFD-fed DIO mice [3]; [13]) was “no changes” and the food intake (12-week HFD-fed DIO mice [3]; [13]) was “no changes”. For the same compound, the glucose tolerance (12-week HFD-fed DIO mice [6]; [13]) was “no changes”.
